# Values of other authors in patent publication US20100323028A1, “METHOD AND COMPOSITION FOR TREATING PULMONARY HEMORRHAGE” (JBS UNITED, INC., priority 2007, published 2010).
# System: horses
# Settings: alone or in combination not able to totally eliminate EIPH
structure (smiles),measurement,value
NS(=O)(=O)c1cc(C(=O)O)c(NCc2ccco2)cc1Cl [furosemide],Effect on EIPH,effective in reducing EIPH
